Data published in PubChem BioAssay AID330 (DTP/NCI, 2004).
Toxic doses and inconclusive results are not listed. How the source made its calls: active means survival T/C of 150% or more; inactive means T/C below 125% in these data.

Test system: P388 leukemia ip, CD2F1 mice, survival T/C
Test: NCI In Vivo Anticancer Drug Screen. Data for tumor model P388 Leukemia (intraperitoneal) in CD2F1 (CDF1) mice
Conditions: endpoint: median survival time, vehicle: saline with Tween-80, higher = longer survival
Summary of the method: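 Mice carrying the transplanted tumor received test compound or vehicle. Survival was recorded in each group, and the value is the treated-group measurement divided by that of the vehicle-treated control group.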

[1] = dose: 12.5 mg/kg/injection, schedule: Q01DX005 (ip)
[2] = dose: 25.0 mg/kg/injection, schedule: Q01DX005 (ip)
[3] = dose: 60.0 mg/kg/injection, schedule: Q01DX005 (ip)

Measured: T/C

CC1=NN(C(=O)c2ccc(Cl)cc2)C(=O)C1N=Nc1ccc(S(=O)(=O)Nc2nc(C)cc(C)n2)cc1 (stereo unspecified)
inactive: dose: 100.0 mg/kg/injection, schedule: Q01DX001 (ip) 92 % of control | dose: 200.0 mg/kg/injection, schedule: Q01DX001 (ip) 86 % of control | dose: 400.0 mg/kg/injection, schedule: Q01DX001 (ip) 89 % of control

O=c1c2ccccc2oc2cc3c(c(O)c12)CCCC3
inactive: [1] 91 % of control | [2] 97 % of control

CN(CC#N)Cc1ccccc1
inactive: dose: 7.5 mg/kg/injection, schedule: Q01DX005 (ip) 95 % of control | dose: 15.0 mg/kg/injection, schedule: Q01DX005 (ip) 96 % of control | dose: 30.0 mg/kg/injection, schedule: Q01DX005 (ip) 97 % of control | [3] 103 % of control

COc1cc2c(cc1OC)[C@H](c1cc(Br)c(O)c(OC)c1)[C@H]1C(=O)OCC1C2 (stereo partly specified)
inactive: [1] 87 % of control | [2] 92 % of control | dose: 50.0 mg/kg/injection, schedule: Q01DX005 (ip) 92 % of control | dose: 100.0 mg/kg/injection, schedule: Q01DX005 (ip) 88 % of control | dose: 200.0 mg/kg/injection, schedule: Q01DX005 (ip) 89 % of control

CN(C)B(N(C)C)N(C)C
inactive: [3] 101 % of control | dose: 120.0 mg/kg/injection, schedule: Q01DX005 (ip) 102 % of control
